Measurements from ChEMBL document CHEMBL1201862, “PubChem BioAssay data set” (2004).
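Five concentrations, 48 hours, 96-well plates. GI50 = concentration required for 50% inhibition of growth.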 The source made the active and inactive calls. Rule as the data show it: active = GI50 up to about 1.1 µM and inactive = higher.

Key:
Experiment in all cases: NCI tumour cell line growth inhibition, 48 h
A498 = tested on: A498
COLO 205 = tested on: COLO 205
DU-145 = tested on: DU-145
HOP-62 = tested on: HOP-62
IGROV-1 = tested on: IGROV-1
Malme-3M = tested on: Malme-3M
OVCAR-3 = tested on: OVCAR-3
OVCAR-4 = tested on: OVCAR-4
RPMI-8226 = tested on: RPMI-8226
SF-295 = tested on: SF-295
SK-MEL-5 = tested on: SK-MEL-5
SR = tested on: SR
786-0 = tested on: 786-0
NCI-H226 = tested on: NCI-H226
NCI-H23 = tested on: NCI-H23
RXF 393 = tested on: RXF 393
SF-539 = tested on: SF-539
SN12C = tested on: SN12C
SNB-75 = tested on: SNB-75

Measured: GI50

CC(NC(CC12CC3CC(CC(C3)C1)C2)C(N)=O)c1ccccc1 (stereo unspecified)
inactive: A498 14.6 µM | COLO 205 12.6 µM | DU-145 24.7 µM | HOP-62 28.1 µM | IGROV-1 39.7 µM | Malme-3M 17.9 µM | OVCAR-3 13.2 µM | OVCAR-4 33.7 µM | RPMI-8226 15.7 µM | SF-295 13 µM | SK-MEL-5 13.4 µM | SR 17.4 µM

NNc1[nH]c(=S)[nH]c1C(N)=O
inactive: 786-0 > 100 µM | A498 > 100 µM | COLO 205 > 100 µM | DU-145 > 100 µM | HOP-62 > 100 µM | IGROV-1 > 100 µM | Malme-3M > 100 µM | NCI-H226 > 100 µM | NCI-H23 > 10 µM | OVCAR-3 > 100 µM | OVCAR-4 > 100 µM | RPMI-8226 > 100 µM | RXF 393 > 100 µM | SF-295 > 100 µM | SF-539 > 100 µM | SK-MEL-5 > 100 µM | SN12C > 100 µM | SNB-75 > 100 µM

CCOP(=O)(OCC)C(c1ccc(F)cc1)N(C(=O)NC(F)(F)F)c1ccc(F)cc1 (stereo unspecified)
inactive: 786-0 > 100 µM | COLO 205 > 100 µM | DU-145 > 100 µM | HOP-62 > 100 µM | IGROV-1 > 100 µM | Malme-3M > 100 µM | NCI-H226 > 100 µM | NCI-H23 > 100 µM | OVCAR-3 > 100 µM | RPMI-8226 > 100 µM | RXF 393 > 100 µM | SF-295 > 100 µM | SF-539 > 100 µM | SK-MEL-5 > 100 µM | SN12C > 100 µM | SNB-75 > 100 µM | SR > 100 µM

COC(=O)C1(NC(=O)C(Cc2ccccc2)N(C(=O)OC(C)(C)C)C(=O)OC(C)(C)C)CCCC1 (stereo unspecified)
inactive: 786-0 > 10 µM | A498 25.8 µM | COLO 205 > 100 µM | DU-145 > 100 µM | HOP-62 77.8 µM | IGROV-1 > 100 µM | NCI-H226 > 100 µM | NCI-H23 30.5 µM | RPMI-8226 20 µM | SF-539 > 100 µM | SK-MEL-5 > 100 µM | SN12C > 100 µM | SNB-75 > 100 µM | SR > 10 µM

COc1ccc2c(C)cc(N/N=C/c3ccc(OC)c4ccccc34)nc2c1
inactive: 786-0 12.1 µM | COLO 205 16.7 µM | DU-145 4.36 µM | HOP-62 18.2 µM | IGROV-1 14.9 µM | Malme-3M 17.5 µM | NCI-H226 12.9 µM | NCI-H23 16.5 µM | OVCAR-3 2.96 µM | OVCAR-4 19 µM | RPMI-8226 2.78 µM | RXF 393 16.7 µM | SF-295 16.8 µM | SF-539 15.8 µM | SK-MEL-5 16.4 µM | SN12C 2.13 µM | SNB-75 22.9 µM | SR 4.17 µM

C/C(Cc1ccc2c(c1)OCO2)=N\N=c1\sc2ccccc2n1C
inactive: 786-0 > 100 µM | A498 > 100 µM | COLO 205 > 100 µM | DU-145 > 100 µM | HOP-62 > 100 µM | IGROV-1 > 100 µM | Malme-3M > 100 µM | NCI-H226 > 100 µM | NCI-H23 78 µM | OVCAR-3 > 100 µM | OVCAR-4 > 100 µM | RPMI-8226 65.9 µM | RXF 393 > 100 µM | SF-295 > 100 µM | SF-539 > 100 µM | SK-MEL-5 45.2 µM | SN12C > 100 µM

O=C1C2=Cc3ccccc3OC2(O)Oc2ccc(O)cc21 (stereo unspecified)
inactive: 786-0 > 100 µM | A498 > 100 µM | COLO 205 40.8 µM | DU-145 > 100 µM | HOP-62 57.1 µM | IGROV-1 56.4 µM | Malme-3M 91.2 µM | NCI-H226 > 100 µM | NCI-H23 84.1 µM | OVCAR-3 36.7 µM | RPMI-8226 23.1 µM | RXF 393 > 100 µM | SF-295 > 100 µM | SF-539 > 100 µM | SK-MEL-5 44.1 µM | SN12C > 100 µM | SNB-75 35.9 µM

C=CCOC(=O)c1c(C)[n+]([O-])c2cc(Cl)c(Cl)cc2[n+]1[O-]
inactive: 786-0 29.4 µM | A498 27.5 µM | COLO 205 17.9 µM | DU-145 29.6 µM | HOP-62 25.5 µM | IGROV-1 4.62 µM | Malme-3M 28.5 µM | NCI-H226 19.1 µM | NCI-H23 14.4 µM | OVCAR-3 20.1 µM | OVCAR-4 7.23 µM | RPMI-8226 12.4 µM | SF-295 32.6 µM | SF-539 21.8 µM | SK-MEL-5 19 µM | SN12C 24.3 µM | SR 4.54 µM

N#Cc1sc2c(c1O)c(=O)n(-c1ccccc1)c(=S)n2-c1ccccc1
inactive: 786-0 > 100 µM | COLO 205 > 100 µM | DU-145 > 100 µM | IGROV-1 > 100 µM | Malme-3M > 100 µM | NCI-H226 > 100 µM | NCI-H23 > 100 µM | OVCAR-3 > 100 µM | OVCAR-4 > 100 µM | RPMI-8226 > 100 µM | RXF 393 > 100 µM | SF-295 > 100 µM | SK-MEL-5 > 100 µM | SN12C > 100 µM | SNB-75 > 100 µM | SR > 100 µM
